According to the supplement of paper PMC13380429:

Legend:
Details in all cases: 72 h
Vero E6 [1] = experiment: relative viability EC50 (midpoint between 100% and the lowest measured viability); higher = less toxic
Caco-2 [2] = experiment: as above
U2OS [3] = experiment: as above
HepG2 [4] = experiment: as above
Calu-3 [5] = experiment: as above
Vero E6 [6] = experiment: drug sensitivity score (DSS) for viability; higher = more toxic; extreme values may be limits of the assay
Caco-2 [7] = experiment: as above
U2OS [8] = experiment: as above
HepG2 [9] = experiment: as above
Calu-3 [10] = experiment: as above
Vero E6 [11] = experiment: cell viability relative to DMSO; higher = less toxic
Caco-2 [12] = experiment: as above
U2OS [13] = experiment: as above
HepG2 [14] = experiment: as above
Calu-3 [15] = experiment: as above

Row | SMILES | relative viability EC50 (Vero E6 [1]) | relative viability EC50 (Caco-2 [2]) | relative viability EC50 (U2OS [3]) | relative viability EC50 (HepG2 [4]) | relative viability EC50 (Calu-3 [5]) | drug sensitivity score (Vero E6 [6]) | drug sensitivity score (Caco-2 [7]) | drug sensitivity score (U2OS [8]) | drug sensitivity score (HepG2 [9]) | drug sensitivity score (Calu-3 [10]) | cell viability (Vero E6 [11]; 1 nM) | cell viability (Vero E6 [11]; 10 nM) | cell viability (Vero E6 [11]; 100 nM) | cell viability (Vero E6 [11]; 1000 nM) | cell viability (Vero E6 [11]; 10000 nM) | cell viability (Caco-2 [12]; 1 nM) | cell viability (Caco-2 [12]; 10 nM) | cell viability (Caco-2 [12]; 100 nM) | cell viability (Caco-2 [12]; 1000 nM) | cell viability (Caco-2 [12]; 10000 nM) | cell viability (U2OS [13]; 1 nM) | cell viability (U2OS [13]; 10 nM) | cell viability (U2OS [13]; 100 nM) | cell viability (U2OS [13]; 1000 nM) | cell viability (U2OS [13]; 10000 nM) | cell viability (HepG2 [14]; 1 nM) | cell viability (HepG2 [14]; 10 nM) | cell viability (HepG2 [14]; 100 nM) | cell viability (HepG2 [14]; 1000 nM) | cell viability (HepG2 [14]; 10000 nM) | cell viability (Calu-3 [15]; 1 nM) | cell viability (Calu-3 [15]; 10 nM) | cell viability (Calu-3 [15]; 100 nM) | cell viability (Calu-3 [15]; 1000 nM) | cell viability (Calu-3 [15]; 10000 nM)
1 | Cc1n[nH]c2ccc(-c3cncc(OC[C@@H](N)Cc4ccccc4)c3)cc12 | 1.3 µM | 2.28 µM | 2.18 µM | 1.04 µM | 3.43 µM | 9.7 | 5.3 | 7.3 | 11.3 | 2.9 | 101% | 106% | 96.3% | 66% | 5% | 96.7% | 102% | 97.8% | 92.2% | 27.3% | 99.6% | 99.8% | 97.7% | 88.3% | 2.8% | 103% | 95.8% | 106% | 53% | 1.7% | 105% | 102% | 93.4% | 103% | 41.3%
2 | Clc1cccc(-c2nnnn2Cc2cccnc2)c1Cl | > 10 µM | > 10 µM | > 10 µM | > 10 µM | > 10 µM | 0 | 0 | 0 | 0 | 0 | 106% | 103% | 104% | 99.2% | 102% | 97.6% | 104% | 99.1% | 98.4% | 91.1% | 97% | 95.9% | 94.2% | 99.3% | 94.9% | 101% | 97.5% | 105% | 101% | 103% | 99.9% | 105% | 96.2% | 98.2% | 97.2%
3 | O=C(CCc1ccncc1)NNC(=O)N1Cc2ccccc2Oc2ccc(Cl)cc21 | > 10 µM | > 10 µM | > 10 µM | > 10 µM | > 10 µM | 0 | 0 | 0 | 0 | 0 | 100% | 98.4% | 101% | 94.9% | 109% | 88.1% | 99.1% | 92.7% | 95.6% | 98.4% | 96.4% | 103% | 96.8% | 102% | 100% | 117% | 106% | 111% | 99.9% | 107% | 103% | 96.4% | 97.3% | 87.8% | 95.4%
4 | O=C(Nc1ccc(Oc2ccc(Cl)cn2)c(Cl)c1)c1ccccn1 | > 10 µM | > 10 µM | > 10 µM | > 10 µM | > 10 µM | 0 | 0 | 0 | 0 | 0 | 101% | 101% | 102% | 96% | 95.8% | 98.1% | 97.8% | 104% | 104% | 93.1% | 102% | 105% | 99.6% | 104% | 96.2% | 104% | 108% | 109% | 93.7% | 99.1% | 103% | 108% | 95.1% | 98.6% | 97.7%
5 | O=C(Oc1cc(S(=O)(=O)c2ccccc2)ccc1[N+](=O)[O-])c1ccc(Cl)cc1 | > 10 µM | > 10 µM | > 10 µM | > 10 µM | > 10 µM | 0 | 0 | 0 | 0 | 0 | 97.5% | 104% | 94.7% | 101% | 106% | 103% | 93.4% | 92.3% | 87.5% | 103% | 96.5% | 94.9% | 97.4% | 94.6% | 96.9% | 100% | 97.2% | 98.4% | 97.2% | 102% | 101% | 97.2% | 92.5% | 94.8% | 106%
6 | O=c1cc(N2CCOCC2)oc2c(-c3ccccc3)cccc12 | > 10 µM | > 10 µM | > 10 µM | > 10 µM | > 10 µM | 1.3 | 0.6 | 0 | 0.1 | 1.1 | 99.8% | 97.4% | 96.1% | 92.4% | 77.1% | 109% | 94.9% | 89% | 96.5% | 81.9% | 97.5% | 95% | 94.2% | 97.8% | 92.3% | 93.5% | 101% | 110% | 105% | 86.1% | 98% | 93.7% | 97.4% | 98.2% | 76.5%
7 | OC(c1ccccc1)C1CCN(CCc2ccccc2)CC1 (centres undefined) | > 10 µM | > 10 µM | > 10 µM | > 10 µM | > 10 µM | 0 | 0 | 0 | 0 | 0 | 96.3% | 94.1% | 93.5% | 93.8% | 106% | 98.4% | 95.2% | 102% | 101% | 95.4% | 101% | 96.7% | 102% | 98% | 101% | 88.4% | 110% | 96.7% | 105% | 114% | 97.3% | 85% | 111% | 108% | 104%
8 | c1ccc(CCCN2CCN(CCOC(c3ccccc3)c3ccccc3)CC2)cc1 | > 10 µM | > 10 µM | > 10 µM | > 10 µM | > 10 µM | 0 | 0.3 | 0 | 0.2 | 0 | 114% | 104% | 106% | 96.5% | 95.9% | 104% | 95% | 94.4% | 92.9% | 85.6% | 101% | 97% | 100% | 98.1% | 97.8% | 92.4% | 91.6% | 99.2% | 99.7% | 85.1% | 102% | 98.4% | 103% | 95.9% | 99.7%
9 | CC(C)NC[C@@H](O)c1ccc(O)c(O)c1 (racemic) [isoprenaline] | > 10 µM | > 10 µM | > 10 µM | > 10 µM | > 10 µM | 0.4 | 0 | 0 | 0 | 0 | 101% | 97.6% | 101% | 107% | 79.8% | 96.5% | 90% | 89% | 92.9% | 93.9% | 96.8% | 98.9% | 95.5% | 99.7% | 103% | 109% | 98.6% | 96.5% | 100% | 101% | 93.6% | 104% | 94.4% | 92.3% | 98.2%
10 | BrC1C(Br)C(Br)C(Br)C(Br)C1Br (centres undefined) [1,2,3,4,5,6-hexabromocyclohexane] | > 10 µM | > 10 µM | > 10 µM | > 10 µM | > 10 µM | 0 | 0 | 0 | 0 | 0 | 99.7% | 107% | 101% | 105% | 93.9% | 96.4% | 93.6% | 97.3% | 102% | 98.4% | 99.1% | 96.4% | 101% | 95.1% | 101% | 95.8% | 106% | 89.1% | 99.8% | 90.2% | 106% | 104% | 104% | 87.3% | 105%
11 | COc1cc(SC)ccc1C(=O)N1CCC(Cc2ccccc2)CC1 [JX-401] | > 10 µM | > 10 µM |  | > 10 µM | > 10 µM | 0 | 0 |  | 0 | 0 | 101% | 98.6% | 99.8% | 97.6% | 94.8% | 95.5% | 95.9% | 90.9% | 99% | 94.5% |  |  |  |  |  | 104% | 110% | 99.9% | 97.7% | 106% | 99.4% | 114% | 97.5% | 103% | 97.3%
12 | O=c1cc(-c2ccc(O)cc2)oc2cc(O)cc(O)c12 [apigenin] | > 10 µM | > 10 µM |  | > 10 µM | > 10 µM | 0 | 0 |  | 0 | 0 | 101% | 101% | 101% | 95.2% | 92% | 93.9% | 94.2% | 105% | 94.8% | 90.4% |  |  |  |  |  | 92.8% | 105% | 97.7% | 102% | 94% | 104% | 103% | 101% | 99.3% | 94.7%
13 | CNC(C)(C)Cc1ccccc1 [mephentermine] | > 10 µM | > 10 µM |  | > 10 µM | > 10 µM | 0 | 0 |  | 0 | 0 | 108% | 97.3% | 97% | 105% | 104% | 97.1% | 105% | 104% | 106% | 96.8% |  |  |  |  |  | 102% | 99.6% | 106% | 104% | 91.4% | 101% | 97.4% | 95.5% | 102% | 99.8%
14 | Clc1ccc(COC(Cn2ccnc2)c2ccc(Cl)cc2Cl)c(Cl)c1 (centres undefined) [miconazole] | > 10 µM |  | > 10 µM | > 10 µM | > 10 µM | 0 | 2.4 | 0 | 1.5 | 0.5 | 106% | 106% | 101% | 102% | 97.2% | 96.3% | 98% | 96.2% | 85.9% | 72.1% | 95.5% | 94.9% | 102% | 94.2% | 92.4% | 97.6% | 109% | 103% | 96.2% | 75.5% | 101% | 98.8% | 102% | 91.6% | 87.1%
15 | Oc1c(I)cc(I)c(O)c1I [riodoxol] | > 10 µM | > 10 µM |  | > 10 µM | > 10 µM | 0 | 0 |  | 0 | 0 | 101% | 99.3% | 99.6% | 101% | 94.6% | 94.9% | 93.8% | 98.1% | 93.5% | 104% |  |  |  |  |  | 97.2% | 91.1% | 101% | 93.2% | 96.9% | 103% | 95.1% | 103% | 104% | 98.5%
16 | CCCN(CCC)CCc1cccc2c1CC(=O)N2 [ropinirole] | > 10 µM | > 10 µM |  | > 10 µM | > 10 µM | 0 | 0 |  | 0 | 0 | 100% | 101% | 101% | 99.3% | 96.3% | 97.8% | 108% | 100% | 104% | 105% |  |  |  |  |  | 99.1% | 100% | 87.7% | 103% | 104% | 92.9% | 106% | 99.7% | 89.8% | 103%
